According to ChEMBL document CHEMBL1687786, “Diversity of staphylococcal cassette chromosome mec elements in predominant methicillin-resistant Staphylococcus aureus clones in a small geographic area” (2010):

How the values were obtained:
Assay type in all cases: functional
Staphylococcus aureus [1] = test: Antimicrobial activity against Staphylococcus aureus clone 4-4 harboring staphylococcal cassette chromosome mec element type 2 assessed as percent susceptible isolates by kirby-bauer method
Staphylococcus aureus [2] = test: Antimicrobial activity against Staphylococcus aureus clone 3-3 harboring staphylococcal cassette chromosome mec element type 4 assessed as percent susceptible isolates by kirby-bauer method
Staphylococcus aureus [3] = test: Antimicrobial activity against Staphylococcus aureus clone 2-2 harboring staphylococcal cassette chromosome mec element type U5 assessed as percent susceptible isolates by kirby-bauer method
Staphylococcus aureus [4] = test: Antimicrobial activity against Staphylococcus aureus clone 1-1 harboring staphylococcal cassette chromosome mec element type 5 assessed as percent susceptible isolates by kirby-bauer method
Staphylococcus aureus [5] = test: Antimicrobial activity against Staphylococcus aureus clone 3-3 harboring staphylococcal cassette chromosome mec element type U1 assessed as percent susceptible isolates by kirby-bauer method
Staphylococcus aureus [6] = test: Antimicrobial activity against Staphylococcus aureus clone 2-2 harboring staphylococcal cassette chromosome mec element type 1 assessed as percent susceptible isolates by kirby-bauer method
Staphylococcus aureus [7] = test: Antimicrobial activity against Staphylococcus aureus clone 4-4 harboring staphylococcal cassette chromosome mec element type 4 assessed as percent susceptible isolates by kirby-bauer method
Staphylococcus aureus [8] = test: Antimicrobial activity against Staphylococcus aureus clone 2-2 harboring staphylococcal cassette chromosome mec element type 6 assessed as percent susceptible isolates by kirby-bauer method
Staphylococcus aureus [9] = test: Antimicrobial activity against Staphylococcus aureus clone 1-1 harboring staphylococcal cassette chromosome mec element type U assessed as percent susceptible isolates by kirby-bauer method
Staphylococcus aureus [10] = test: Antimicrobial activity against Staphylococcus aureus clone 3-3 harboring staphylococcal cassette chromosome mec element type 1 assessed as percent susceptible isolates by kirby-bauer method
Staphylococcus aureus [11] = test: Antimicrobial activity against Staphylococcus aureus clone 2-2 harboring staphylococcal cassette chromosome mec element type 4 assessed as percent susceptible isolates by kirby-bauer method
Staphylococcus aureus [12] = test: Antimicrobial activity against Staphylococcus aureus clone 4-4 harboring staphylococcal cassette chromosome mec element type U3 assessed as percent susceptible isolates by kirby-bauer method
Staphylococcus aureus [13] = test: Antimicrobial activity against Staphylococcus aureus clone 3-3 harboring staphylococcal cassette chromosome mec element type 6 assessed as percent susceptible isolates by kirby-bauer method
Staphylococcus aureus [14] = test: Antimicrobial activity against Staphylococcus aureus clone 2-2 harboring staphylococcal cassette chromosome mec element type 2 assessed as percent susceptible isolates by kirby-bauer method
Staphylococcus aureus [15] = test: Antimicrobial activity against Staphylococcus aureus clone 1-1 harboring staphylococcal cassette chromosome mec element type 4 assessed as percent susceptible isolates by kirby-bauer method
Staphylococcus aureus [16] = test: Antimicrobial activity against Staphylococcus aureus clone 4-4 harboring staphylococcal cassette chromosome mec element type 1 assessed as percent susceptible isolates by kirby-bauer method
Staphylococcus aureus [17] = test: Antimicrobial activity against Staphylococcus aureus clone 2-2 harboring staphylococcal cassette chromosome mec element type U3 assessed as percent susceptible isolates by kirby-bauer method
Staphylococcus aureus [18] = test: Antimicrobial activity against Staphylococcus aureus clone 2-2 harboring staphylococcal cassette chromosome mec element type 5 assessed as percent susceptible isolates by kirby-bauer method
Staphylococcus aureus [19] = test: Antimicrobial activity against Staphylococcus aureus clone 3-3 harboring staphylococcal cassette chromosome mec element type U6 assessed as percent susceptible isolates by kirby-bauer method
Staphylococcus aureus [20] = test: Antimicrobial activity against Staphylococcus aureus clone 4-4 harboring staphylococcal cassette chromosome mec element type 5 assessed as percent susceptible isolates by kirby-bauer method
Staphylococcus aureus [21] = test: Antimicrobial activity against Staphylococcus aureus clone 3-3 harboring staphylococcal cassette chromosome mec element type 2 assessed as percent susceptible isolates by kirby-bauer method
Staphylococcus aureus [22] = test: Antimicrobial activity against Staphylococcus aureus clone 3-3 harboring staphylococcal cassette chromosome mec element type U8 assessed as percent susceptible isolates by kirby-bauer method

| Molecule | Activity (Staphylococcus aureus [1]) [%] | Activity (Staphylococcus aureus [2]) [%] | Activity (Staphylococcus aureus [3]) [%] | Activity (Staphylococcus aureus [4]) [%] | Activity (Staphylococcus aureus [5]) [%] | Activity (Staphylococcus aureus [6]) [%] | Activity (Staphylococcus aureus [8]) [%] | Activity (Staphylococcus aureus [9]) [%] | Activity (Staphylococcus aureus [10]) [%] | Activity (Staphylococcus aureus [11]) [%] | Activity (Staphylococcus aureus [12]) [%] | Activity (Staphylococcus aureus [13]) [%] | Activity (Staphylococcus aureus [14]) [%] | Activity (Staphylococcus aureus [15]) [%] | Activity (Staphylococcus aureus [16]) [%] | Activity (Staphylococcus aureus [17]) [%] | Activity (Staphylococcus aureus [18]) [%] | Activity (Staphylococcus aureus [19]) [%] | Activity (Staphylococcus aureus [20]) [%] | Activity (Staphylococcus aureus [22]) [%] | also measured |
| --- | --- | --- | --- | --- | --- | --- | --- | --- | --- | --- | --- | --- | --- | --- | --- | --- | --- | --- | --- | --- | --- |
| CO/N=C(\C(=O)N[C@@H]1C(=O)N2C(C(=O)O)=C(CSc3nc(=O)c(O)nn3C)CS[C@H]12)c1csc(N)n1 [CEFTRIAXONE] | 0 | 0 | 0 | 0 | 0 | 11 | 0 | 0 | 0 | 0 | 0 | 0 | 0 | 2 | 0 | 0 | 11 | 0 | 0 | – | Activity (Staphylococcus aureus [7]): 0%; Activity (Staphylococcus aureus [21]): 0% |
| CCC[C@@H]1C[C@@H](C(=O)N[C@@H]([C@H]2O[C@H](SC)[C@H](O)[C@@H](O)[C@H]2O)[C@H](C)Cl)N(C)C1 [CLINDAMYCIN] | 0 | 79 | 100 | 100 | 100 | 89 | 100 | 100 | 0 | 56 | 100 | 100 | 38 | 98 | 1 | 100 | 89 | 50 | 100 | 95 | – |
| CC[C@H]1OC(=O)[C@H](C)[C@@H](O[C@H]2C[C@@](C)(OC)[C@@H](O)[C@H](C)O2)[C@H](C)[C@@H](O[C@@H]2O[C@H](C)C[C@H](N(C)C)[C@H]2O)[C@](C)(O)C[C@@H](C)C(=O)[C@H](C)[C@@H](O)[C@]1(C)O [ERYTHROMYCIN] | 0 | – | 0 | 100 | 100 | 67 | – | 100 | 0 | 39 | 0 | 100 | 1 | 98 | 1 | 100 | 89 | 50 | 100 | 98 | – |
| CC(=O)O[C@H]1C[C@@]2(C)[C@@H](C[C@@H](O)[C@H]3[C@@]4(C)CC[C@@H](O)[C@@H](C)[C@@H]4CC[C@@]32C)/C1=C(\CCC=C(C)C)C(=O)O [FUSIDIC ACID] | 100 | 96 | 100 | 100 | – | 0 | 100 | 0 | 0 | 100 | 100 | 0 | 98 | 83 | 99 | 100 | 100 | 50 | 50 | 100 | Activity (Staphylococcus aureus [7]): 100% |
| CO[C@H]1/C=C/O[C@@]2(C)Oc3c(C)c(O)c4c(O)c(c(/C=N/N5CCN(C)CC5)c(O)c4c3C2=O)NC(=O)/C(C)=C\C=C\[C@H](C)[C@H](O)[C@@H](C)[C@@H](O)[C@@H](C)[C@H](OC(C)=O)[C@@H]1C [RIFAMPIN] | 100 | 100 | 100 | 100 | 100 | 100 | 100 | 100 | 100 | 94 | 100 | 100 | 100 | 100 | 96 | 100 | 100 | 100 | 100 | 100 | Activity (Staphylococcus aureus [7]): 100%; Activity (Staphylococcus aureus [21]): 100% |
| GENTAMICIN | 3 | 100 | 100 | 100 | 100 | 100 | 100 | 100 | 97 | 94 | 100 | 100 | 100 | 98 | 95 | 100 | 0 | 100 | 100 | 100 | Activity (Staphylococcus aureus [7]): 100%; Activity (Staphylococcus aureus [21]): 100% |
